Counter-ions that a name gives are not always drawn.
Test: Particle size distribution by laser light scattering (Malvern Mastersizer S)
Format: physicochemical
Conditions: mean equivalent spherical diameter; raloxifene hydrochloride used in Formulations 1-4
Excerpt: For example, in Formulations 1-4 below, d(0.5) = 38.8 µm and d(0.9) = 90.4 µm. All particle sizes herein refer to the mean equivalent spherical diameter measured by laser light scattering techniques. Thus, the notation "d(0.5) greater than about 35 µm" means that 50% of the particles by volume have a mean equivalent spherical diameter of more than about 35 µm, as measured by laser light scattering. The laser light scattering measurement instrument used to measure the particle size distributions in the Examples was a Malvern Mastersizer® S. The dissolution profile was generated by testing in either 900 mL or 2 L of a 0.1 % aqueous polysorbate 80 solution, using paddle apparatus (USP Apparatus II) at 50 rpm at 37°C.

d(0.5): 38.8 µm
d(0.9): 90.4 µm
SMILES: O=C(c1ccc(OCCN2CCCCC2)cc1)c1c(-c2ccc(O)cc2)sc2cc(O)ccc12 [raloxifene hydrochloride]
